# Source: patent US10717733B2, “Haloallylamine indole and azaindole derivative inhibitors of lysyl oxidases and uses thereof” (PHARMAXIS LTD., priority 2016, dated 2020)
# Where a name gives a salt, the structure may show the parent alone.
# How the values were obtained:
# Type in all cases: biochemical
# Bovine LOX = Bovine LOX (Bos taurus (Bovine), UniProt P33072); assay: LOX inhibition, peroxidase-coupled Amplex Red amine oxidase assay; conditions: 30 min preincubation at 37° C., putrescine substrate
# Chain of Bovine LOX (P33072 170-418): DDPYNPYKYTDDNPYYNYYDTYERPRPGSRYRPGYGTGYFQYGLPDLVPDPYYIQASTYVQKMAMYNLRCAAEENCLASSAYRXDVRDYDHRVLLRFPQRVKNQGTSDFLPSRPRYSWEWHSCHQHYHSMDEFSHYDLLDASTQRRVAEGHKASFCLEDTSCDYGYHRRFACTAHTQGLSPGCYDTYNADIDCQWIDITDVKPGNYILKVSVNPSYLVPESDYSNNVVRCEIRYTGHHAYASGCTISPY
# How it was run: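 Bovine LOX in 1.2 M urea, 50 mM sodium borate pH 8.2 with 1 μM mofegiline and 0.5 mM pargyline; putrescine at twice KM (e.g. 20 mM for LOX) with Amplex Red/HRP. Fluorescence (ex 565/em 590 nm) read kinetically over 30 min at 37–45 °C; IC50 from slopes.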
# Human LOXL2 = Human LOXL2 (Homo sapiens (Human), UniProt Q9Y4K0); assay: LOXL2 inhibition, peroxidase-coupled Amplex Red amine oxidase assay; conditions: 30 min preincubation at 37° C., putrescine substrate
# Chain of Human LOXL2 (Q9Y4K0 26-774): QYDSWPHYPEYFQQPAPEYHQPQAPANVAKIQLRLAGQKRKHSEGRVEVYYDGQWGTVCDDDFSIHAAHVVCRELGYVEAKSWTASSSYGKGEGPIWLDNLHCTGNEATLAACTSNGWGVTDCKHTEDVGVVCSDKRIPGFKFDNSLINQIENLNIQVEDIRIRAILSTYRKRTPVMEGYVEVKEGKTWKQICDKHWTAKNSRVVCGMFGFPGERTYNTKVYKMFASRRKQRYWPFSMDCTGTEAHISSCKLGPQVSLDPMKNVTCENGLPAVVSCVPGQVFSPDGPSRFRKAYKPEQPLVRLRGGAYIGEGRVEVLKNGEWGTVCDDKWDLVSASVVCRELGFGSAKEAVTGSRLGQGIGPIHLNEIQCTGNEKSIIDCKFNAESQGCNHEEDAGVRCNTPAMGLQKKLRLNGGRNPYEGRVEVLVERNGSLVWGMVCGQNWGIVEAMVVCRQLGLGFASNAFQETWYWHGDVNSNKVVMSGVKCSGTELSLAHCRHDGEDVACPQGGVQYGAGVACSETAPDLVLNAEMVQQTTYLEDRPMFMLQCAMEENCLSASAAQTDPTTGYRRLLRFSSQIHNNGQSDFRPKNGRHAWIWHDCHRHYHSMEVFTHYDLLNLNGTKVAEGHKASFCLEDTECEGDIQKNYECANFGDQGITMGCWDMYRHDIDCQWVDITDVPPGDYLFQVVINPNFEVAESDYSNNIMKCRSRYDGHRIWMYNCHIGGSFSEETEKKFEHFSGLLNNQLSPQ
# How it was run: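 Enzyme in 1.2 M urea, 50 mM sodium borate pH 8.2 with 1 μM mofegiline and 0.5 mM pargyline, preincubated 30 min at 37° C with compound (11-point CRC). Putrescine at twice KM (10 mM for LOXL2) with Amplex Red/HRP; fluorescence (ex 565, em 590) read kinetically 30 min; IC50 from slopes.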
# [1] = target: human recombinant SSAO/VAP-1 (Homo sapiens (Human), UniProt Q16853); assay: Inhibition of human recombinant SSAO/VAP-1 amine oxidase activity; conditions: 30 min preincubation at 37° C., 600 μM benzylamine
# Chain of human recombinant SSAO/VAP-1 (Q16853 34-763): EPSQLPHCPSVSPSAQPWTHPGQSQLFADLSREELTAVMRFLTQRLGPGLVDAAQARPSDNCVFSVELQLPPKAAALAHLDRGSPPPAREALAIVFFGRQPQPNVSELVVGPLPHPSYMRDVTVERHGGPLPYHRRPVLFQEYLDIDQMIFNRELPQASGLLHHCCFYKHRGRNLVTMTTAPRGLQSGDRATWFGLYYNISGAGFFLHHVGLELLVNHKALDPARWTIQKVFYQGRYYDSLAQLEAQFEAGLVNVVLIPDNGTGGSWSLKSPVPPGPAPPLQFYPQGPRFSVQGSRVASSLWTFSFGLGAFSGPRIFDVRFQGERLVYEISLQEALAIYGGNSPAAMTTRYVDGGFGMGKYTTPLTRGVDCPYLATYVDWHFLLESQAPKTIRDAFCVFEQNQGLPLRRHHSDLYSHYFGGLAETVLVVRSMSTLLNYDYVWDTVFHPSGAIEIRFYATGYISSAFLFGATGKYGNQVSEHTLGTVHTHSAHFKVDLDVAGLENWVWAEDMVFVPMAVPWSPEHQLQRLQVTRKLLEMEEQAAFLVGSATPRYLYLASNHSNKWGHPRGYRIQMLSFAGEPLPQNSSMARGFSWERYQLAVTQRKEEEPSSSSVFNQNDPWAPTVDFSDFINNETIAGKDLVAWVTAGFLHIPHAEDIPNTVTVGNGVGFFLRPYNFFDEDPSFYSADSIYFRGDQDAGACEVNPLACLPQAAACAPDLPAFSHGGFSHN
# How it was run: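 Purified SSAO/VAP-1 (residues 34-763, expressed in CHO Lec 8 cells; 0.25 μg/mL) preincubated 30 min at 37° C with compound in 0.1 M sodium phosphate pH 7.4. Reaction mix of 600 μM benzylamine, 120 μM Amplex Red and 1.5 U/mL HRP added; fluorescence (ex 565/em 590 nm) read every 2.5 min for 30 min; IC50 from kinetic slopes over 4-11 point curves.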
# Recombinant human MAO-B = Recombinant human MAO-B (Homo sapiens (Human), UniProt P27338); assay: Inhibition of human recombinant MAO-B; conditions: benzylamine 100 μM
# Chain of Recombinant human MAO-B (P27338 whole entry): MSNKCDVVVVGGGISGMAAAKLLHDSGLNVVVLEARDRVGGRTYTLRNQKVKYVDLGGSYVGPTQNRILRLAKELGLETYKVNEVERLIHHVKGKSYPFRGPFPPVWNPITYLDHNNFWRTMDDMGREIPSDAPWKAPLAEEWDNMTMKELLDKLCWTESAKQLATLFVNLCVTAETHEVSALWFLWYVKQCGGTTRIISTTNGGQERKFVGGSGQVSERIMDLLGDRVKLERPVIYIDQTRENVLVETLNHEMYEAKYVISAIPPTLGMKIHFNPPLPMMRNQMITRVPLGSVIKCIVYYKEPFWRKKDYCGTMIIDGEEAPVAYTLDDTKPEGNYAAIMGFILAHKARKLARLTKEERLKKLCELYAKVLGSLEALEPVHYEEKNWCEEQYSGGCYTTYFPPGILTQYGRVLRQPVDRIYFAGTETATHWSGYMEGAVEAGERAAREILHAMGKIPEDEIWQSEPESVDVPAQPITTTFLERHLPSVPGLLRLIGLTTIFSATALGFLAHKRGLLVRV
# How it was run: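 Recombinant human MAO-B used as enzyme source (0.06 mg/mL, stated concentration). Run as for the human SSAO/VAP-1 assay, except benzylamine substrate at 100 μM.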
Structure (SMILES),IC50 (Bovine LOX) [nM],IC50 (Human LOXL2) [nM],IC50 [1] [nM],IC50 (Recombinant human MAO-B) [nM]
"Cc1c(-c2cccc(S(=O)(=O)N(C)C)c2)c2nc(C(C)(F)F)ccc2n1C/C(F)=C/CN [Compound 111, (Z)-3-(1-(4-amino-2-fluorobut-2-en-1-yl)-5-(1,1-difluoroethyl)-2-methyl-1H-pyrrolo[3,2-b]pyridin-3-yl)-N,N-dimethylbenzenesulfonamide Dihydrochloride]",> 300,< 300,> 3000,> 3000
"Cc1c(-c2cncc(S(=O)(=O)N(C)C)c2)c2ccccc2n1C/C(F)=C/CN [Compound 63, (Z)-5-(1-(4-amino-2-fluorobut-2-en-1-yl)-2-methyl-1H-indol-3-yl)-N,N-dimethylpyridine-3-sulfonamide]",> 300,< 300,> 3000,> 3000
"Cc1c(-c2cncc(S(=O)(=O)N(C)C)c2)c2c(Cl)cccc2n1C/C(F)=C/CN [Compound 75, (Z)-5-(1-(4-amino-2-fluorobut-2-en-1-yl)-4-chloro-2-methyl-1H-indol-3-yl)-N,N-dimethylpyridine-3-sulfonamide]",> 300,< 300,> 3000,> 3000
"Cc1c(-c2cccc(S(=O)(=O)N(C)C)c2)c2cccc(C(=O)N(C)C)c2n1C/C(F)=C/CN [Compound 47, (Z)-1-(4-amino-2-fluorobut-2-en-1-yl)-3-(3-(N,N-dimethylsulfamoyl)phenyl)-N,N,2-trimethyl-1H-indole-7-carboxamide]",> 300,< 300,> 3000,> 3000
"Cc1c(-c2cncc(S(=O)(=O)N(C)C)c2)c2cc(C(=O)N(C)C)ccc2n1C/C(F)=C/CN [Compound 41, (Z)-1-(4-amino-2-fluorobut-2-en-1-yl)-3-(5-(N,N-dimethylsulfamoyl)pyridin-3-yl)-N,N,2-trimethyl-1H-indole-5-carboxamide]",> 300,< 300,> 3000,> 3000
"COc1ccc2c(n1)c(-c1cccc(S(=O)(=O)N(C)C)c1)c(C)n2C/C(F)=C/CN [Compound 61, (Z)-3-(1-(4-amino-2-fluorobut-2-en-1-yl)-5-methoxy-2-methyl-1H-pyrrolo[3,2-b]pyridin-3-yl)-N,N-dimethylbenzenesulfonamide Dihydrochloride]",> 300,< 300,> 3000,> 3000
"Cc1c(-c2cccc(S(=O)(=O)N(C)C)c2)c2cc(C#N)ccc2n1C/C(F)=C/CN [Compound 51, (Z)-3-(1-(4-amino-2-fluorobut-2-en-1-yl)-5-cyano-2-methyl-1H-indol-3-yl)-N,N-dimethylbenzenesulfonamide]",> 300,< 300,> 3000,> 3000
"Cc1c(-c2cccc(S(=O)(=O)N(C)C)c2)c2cc(C(=O)N(C)C(C)C)ccc2n1C/C(F)=C/CN [Compound 36, (Z)-1-(4-amino-2-fluorobut-2-en-1-yl)-3-(3-(N,N-dimethylsulfamoyl)phenyl)-N-isopropyl-N,2-dimethyl-1H-indole-5-carboxamide]",> 300,< 300,> 3000,> 3000
"Cc1c(-c2cccc(S(=O)(=O)N(C)C)c2)c2cc(C(=O)O)ccc2n1C/C(F)=C/CN [Compound 8, (Z)-1-(4-amino-2-fluorobut-2-en-1-yl)-3-(3-(N,N-dimethylsulfamoyl)phenyl)-2-methyl-1H-indole-5-carboxylic acid]",> 300,< 300,> 3000,> 3000
"Cc1c(-c2ccc(F)cc2)c2cc(S(N)(=O)=O)ccc2n1C/C(F)=C/CN [Compound 95, (Z)-1-(4-amino-2-fluorobut-2-en-1-yl)-3-(4-fluorophenyl)-2-methyl-1H-indole-5-sulfonamide]",> 300,< 300,> 3000,> 3000
"COCc1ccc2c(n1)c(-c1cccc(S(=O)(=O)N(C)C)c1)c(C)n2C/C(F)=C/CN [Compound 103, (Z)-3-(1-(4-amino-2-fluorobut-2-en-1-yl)-5-(methoxymethyl)-2-methyl-1H-pyrrolo[3,2-b]pyridin-3-yl)-N,N-dimethylbenzenesulfonamide]",> 300,< 300,> 3000,> 3000
"COc1cc(-c2c(C)n(C/C(F)=C/CN)c3ccc(S(C)(=O)=O)cc23)ccn1 [Compound 98, (Z)-3-fluoro-4-(3-(2-methoxypyridin-4-yl)-2-methyl-5-(methylsulfonyl)-1H-indol-1-yl)but-2-en-1-amine]",> 300,< 300,> 3000,> 3000
"Cc1c(-c2cncc(S(C)(=O)=O)c2)c2cc(Cl)ccc2n1C/C(F)=C/CN [Compound 65, (Z)-4-(5-chloro-2-methyl-3-(5-(methylsulfonyl)pyridin-3-yl)-1H-indol-1-yl)-3-fluorobut-2-en-1-amine]",> 300,< 300,> 3000,> 3000
"Cc1c(-c2ccc3c(c2)OCO3)c2cc(S(C)(=O)=O)ccc2n1C/C(F)=C/CN [Compound 92, (Z)-4-(3-(benzo[d][1,3]dioxol-5-yl)-2-methyl-5-(methylsulfonyl)-1H-indol-1-yl)-3-fluorobut-2-en-1-amine]",> 300,< 300,> 3000,> 3000
"CCOC(=O)c1ccc2c(c1)c(-c1ccc(F)cc1)c(C)n2C/C(F)=C/CN [Compound 24, ethyl (Z)-1-(4-amino-2-fluorobut-2-en-1-yl)-3-(4-fluorophenyl)-2-methyl-1H-indole-5-carboxylate]",> 300,< 300,> 3000,> 3000
"CCOC(=O)c1ccc2c(c1)c(-c1cccc(C(C)(C)C)c1)c(C)n2C/C(F)=C/CN [Compound 30, ethyl (Z)-1-(4-amino-2-fluorobut-2-en-1-yl)-3-(3-(tert-butyl)phenyl)-2-methyl-1H-indole-5-carboxylate]",> 300,< 300,> 3000,> 3000
"Cc1c(-c2ccncc2)c2cc(S(C)(=O)=O)ccc2n1C/C(F)=C/CN [Compound 88, (Z)-3-fluoro-4-(2-methyl-5-(methylsulfonyl)-3-(pyridin-4-yl)-1H-indol-1-yl)but-2-en-1-amine]",> 300,< 300,> 3000,> 3000
"Cc1c(-c2cccc(S(=O)(=O)N(C)C)c2)c2cc(C(=O)N(C)C)ccc2n1C/C(F)=C/CN [Compound 6, (Z)-1-(4-amino-2-fluorobut-2-en-1-yl)-3-(3-(N,N-dimethylsulfamoyl)phenyl)-N,N,2-trimethyl-1H-indole-5-carboxamide]",> 300,< 300,> 3000,> 3000
"Cc1c(-c2cccc(Cl)c2)c2cc(C(=O)O)ccc2n1C/C(F)=C/CN [Compound 28, (Z)-1-(4-amino-2-fluorobut-2-en-1-yl)-3-(3-chlorophenyl)-2-methyl-1H-indole-5-carboxylic acid]",> 300,< 300,> 3000,> 3000
